Results taken from patent US11912686B2 (Gilead Sciences, Inc., priority 2020, dated 2024).

Molecular target: human LPAR1 (Homo sapiens (Human), UniProt Q92633)
Assay: LPAR1 intracellular calcium mobilization assay (antagonist mode, FLIPR)
Format: cell-based
Conditions: CHO-K1 EDG2 cells expressing human LPAR1, LPA 18:2 at EC80 (100 nM), test compound 0.5 nM to 10 μM

Sequence of human LPAR1 (Q92633 whole entry): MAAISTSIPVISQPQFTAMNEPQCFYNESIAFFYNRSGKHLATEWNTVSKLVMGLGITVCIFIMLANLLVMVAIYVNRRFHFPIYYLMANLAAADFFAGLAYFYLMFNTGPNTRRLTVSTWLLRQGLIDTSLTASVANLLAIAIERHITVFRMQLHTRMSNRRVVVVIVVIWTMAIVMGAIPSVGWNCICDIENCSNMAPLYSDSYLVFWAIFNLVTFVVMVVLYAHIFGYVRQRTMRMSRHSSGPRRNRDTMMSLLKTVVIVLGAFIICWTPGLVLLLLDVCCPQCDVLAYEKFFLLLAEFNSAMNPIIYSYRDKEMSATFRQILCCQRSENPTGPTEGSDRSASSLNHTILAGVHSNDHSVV

Structure (SMILES)	EC50 [nM]
C[C@@H](OC(=O)Nc1c(-c2cnc(NC(=O)c3cnc(C(F)F)nc3)cn2)nnn1C)c1cccnc1Cl [Compound 324, (R)-1-(2-chloropyridin-3-yl)ethyl (4-(5-(2-(difluoromethyl)pyrimidine-5-carboxamido)pyrazin-2-yl)-1-methyl-1H-1,2,3-triazol-5-yl)carbamate]	53.7
C[C@@H](OC(=O)Nc1c(-c2cnc(NC(=O)c3cnc(C(F)(F)F)nc3)cn2)nnn1C)c1cccnc1F [Compound 325, (R)-1-(2-fluoropyridin-3-yl)ethyl (1-methyl-4-(5-(2-(trifluoromethyl)pyrimidine-5-carboxamido)pyrazin-2-yl)-1H-1,2,3-triazol-5-yl)carbamate]	185
C[C@@H](OC(=O)Nc1c(-c2cnc(NC(=O)c3ccc(C(F)(F)F)nc3)cn2)nnn1C)c1cccnc1F [Compound 326, (R)-1-(2-fluoropyridin-3-yl)ethyl (1-methyl-4-(5-(6-(trifluoromethyl)nicotinamido)pyrazin-2-yl)-1H-1,2,3-triazol-5-yl)carbamate]	305
C[C@@H](OC(=O)Nc1c(-c2cnc(NC(=O)c3cnc(C(F)F)nc3)cn2)nnn1C)c1cccnc1F [Compound 327, (R)-1-(2-fluoropyridin-3-yl)ethyl (4-(5-(2-(difluoromethyl)pyrimidine-5-carboxamido)pyrazin-2-yl)-1-methyl-1H-1,2,3-triazol-5-yl)carbamate]	255
C[C@@H](OC(=O)Nc1c(-c2cnc(NC(=O)C3(C#N)CC3)cn2)nnn1C)c1cc(F)cnc1F [Compound 328, (R)-1-(2,5-difluoropyridin-3-yl)ethyl (4-(5-(1-cyanocyclopropane-1-carboxamido)pyrazin-2-yl)-1-methyl-1H-1,2,3-triazol-5-yl)carbamate]	1130
C[C@@H](OC(=O)Nc1c(-c2ncc(NC(=O)C3(C#N)CC3)cn2)nnn1C)c1cc(F)cnc1Cl [Compound 329, (R)-1-(2-chloro-5-fluoropyridin-3-yl)ethyl (4-(5-(1-cyanocyclopropane-1-carboxamido)pyrimidin-2-yl)-1-methyl-1H-1,2,3-triazol-5-yl)carbamate]	749
C[C@@H](OC(=O)Nc1c(-c2ncc(NC(=O)C34CC(F)(C3)C4)cn2)nnn1C)c1cc(F)cnc1Cl [Compound 330, (R)-1-(2-chloro-5-fluoropyridin-3-yl)ethyl (4-(5-(3-fluorobicyclo[1.1.1]pentane-1-carboxamido)pyrimidin-2-yl)-1-methyl-1H-1,2,3-triazol-5-yl)carbamate]	600
C[C@@H](OC(=O)Nc1c(-c2ncc(NC(=O)[C@@H]3C[C@H]3C(F)(F)F)cn2)nnn1C)c1cc(F)cnc1Cl [Compound 331, (R)-1-(2-chloro-5-fluoropyridin-3-yl)ethyl (1-methyl-4-(5-((1R,2R)-2-(trifluoromethyl)cyclopropane-1-carboxamido)pyrimidin-2-yl)-1H-1,2,3-triazol-5-yl)carbamate]	22.8
C[C@@H](OC(=O)Nc1c(-c2ncc(NC(=O)c3ccc(C(F)(F)F)nc3)cn2)nnn1C)c1cc(F)cnc1Cl [Compound 332, (R)-1-(2-chloro-5-fluoropyridin-3-yl)ethyl (1-methyl-4-(5-(6-(trifluoromethyl)nicotinamido)pyrimidin-2-yl)-1H-1,2,3-triazol-5-yl)carbamate]	354
C[C@@H](OC(=O)Nc1c(-c2cnc(NC(=O)C34CC(F)(C3)C4)cn2)nnn1C)c1cc(F)cnc1Cl [Compound 333, (R)-1-(2-chloro-5-fluoropyridin-3-yl)ethyl (4-(5-(3-fluorobicyclo[1.1.1]pentane-1-carboxamido)pyrazin-2-yl)-1-methyl-1H-1,2,3-triazol-5-yl)carbamate]	219
CO[C@]1(C#N)C[C@@H](C(=O)Nc2cnc(-c3nnn(C)c3NC(=O)O[C@H](C)c3cc(F)cnc3F)nc2)C1 [Compound 334, (R)-1-(2,5-difluoropyridin-3-yl)ethyl (4-(5-((1r,3R)-3-cyano-3-methoxycyclobutane-1-carboxamido)pyrimidin-2-yl)-1-methyl-1H-1,2,3-triazol-5-yl)carbamate]	3420
CO[C@]1(C#N)C[C@H](C(=O)Nc2cnc(-c3nnn(C)c3NC(=O)O[C@H](C)c3cc(F)cnc3F)nc2)C1 [Compound 335, (R)-1-(2,5-difluoropyridin-3-yl)ethyl (4-(5-((1s,3S)-3-cyano-3-methoxycyclobutane-1-carboxamido)pyrimidin-2-yl)-1-methyl-1H-1,2,3-triazol-5-yl)carbamate]	778
C[C@@H](OC(=O)Nc1c(-c2ncc(NC(=O)C3(C#N)CC3)cc2F)nnn1C)c1cc(F)cnc1F [Compound 336, (R)-1-(2,5-difluoropyridin-3-yl)ethyl (4-(5-(1-cyanocyclopropane-1-carboxamido)-3-fluoropyridin-2-yl)-1-methyl-1H-1,2,3-triazol-5-yl)carbamate]	258
C[C@@H](OC(=O)Nc1c(-c2ncc(NC(=O)C34CC(C#N)(C3)C4)cc2F)nnn1C)c1cc(F)cnc1F [Compound 337, (R)-1-(2,5-difluoropyridin-3-yl)ethyl (4-(5-(3-cyanobicyclo[1.1.1]pentane-1-carboxamido)-3-fluoropyridin-2-yl)-1-methyl-1H-1,2,3-triazol-5-yl)carbamate]	163
C[C@@H](OC(=O)Nc1c(-c2ncc(NC(=O)c3ccc(Cl)nc3)cc2F)nnn1C)c1cc(F)cnc1F [Compound 338, (R)-1-(2,5-difluoropyridin-3-yl)ethyl (4-(5-(6-chloronicotinamido)-3-fluoropyridin-2-yl)-1-methyl-1H-1,2,3-triazol-5-yl)carbamate]	132
